Experimental findings from US9958451B2, “Near-infrared fluorescent dyes with large stokes shifts” (Portland State University, priority 2011, dated 2018) are described below.

Data set [1] is described as follows: UV-visible absorbance spectroscopy, 15 μM in 90% aqueous, 10% DMSO. It counts as physicochemical. The following applies: for Red shift of absorption spectra from 3-1 transposition versus known regiochemistry: depending on the ionization state. The method, then: Compounds 21 and 7 were characterized by UV-visible spectroscopy (FIG. 15). Absorbance was measured using 15 μM solutions of each compound in a solution that was 90% aqueous, 10% DMSO. The peaks at 600 nm (light dashed line) and 675 nm (light solid line) represent the dianions of compounds 21 and 7, respectively, in NaOH (pH 12). The peaks at 590 nm (heavy dashed line) and 650 nm (heavy solid line) represent a mix of mono- and dianions of compound 21 at pH 7.4 and predominantly monoanions of compound 7 at pH 9, respectively.
Compounds 22 and 8 were characterized by UV-visible spectroscopy (FIG. 16). Absorbance was measured using 15 μM solutions of each compound in a solution that was 90% aqueous, 10% DMSO. The peaks at 610 nm (light dashed line) and 685 nm (light solid line) represent the anions of compounds 22 and 8, respectively, in NaOH (pH 12). The peaks at 605 nm (heavy dashed line) and 805 nm (heavy solid line) represent the neutral forms of compounds 22 and 8 at pH 7.4, respectively.
Compounds 20a and 15a were characterized by UV-visible spectroscopy (FIG. 17). Absorbance was measured using 15 μM solutions of each compound in a solution that was 90% aqueous, 10% DMSO. The peaks at 545 nm (light dashed line) and 595 nm (light solid line) represent the respective anions, compounds 20c and 15h, in NaOH (pH 12).
Compound 15b (free amino) was characterized by UV-visible spectroscopy (FIG. 18), and compared to C.SNARF-5 (literature, SNARF=seminaphthorhodafluor). Absorbance was measured using a 15 μM solution of compound 15b in a solution that was 90% aqueous, 10% DMSO. The peak at 535 nm (heavy line) represents the predominantly phenolic form of 15b at pH 6. The peak at 615 nm (light line) represents the phenoxide of compound 15b at in NaOH (pH12). In comparison, C.SNARF-5 produces a peak at 550 nm (anionic form) and a peak at 485 nm (neutral form) (Whitaker et al., Anal. Biochem. 1991, 194, 330-344).
Absorbance was measured using 15 μM solutions of compound 15d in a solution that was 90% aqueous, 10% DMSO. The peak at 570 nm (heavy line) represents the predominantly neutral form of 15d at pH 6. The peak at 630 nm (light line) represents the phenoxide of compound 15d in NaOH (pH 12).
Compounds 20b and 15g were characterized by UV-visible spectroscopy (FIG. 20). Absorbance was measured using 15 μM solutions of each compound in a solution that was 90% aqueous, 10% DMSO. The peaks at 540 nm (dashed line) and 570 nm (solid line) represent the cations of compounds 20b and 15g, respectively, at pH 7.4.

Data set [2] can be described thus: Fluorescence emission spectra, 15 μM in 90% aqueous, 10% DMSO. In kind it is physicochemical. The following applies: for Red-shifted emission from 3-1 transposition versus known regiochemistry: longest wavelength-emitting species. The method, then:
Compounds 21 and 7 also were characterized by their fluorescence emission spectra. Fluorescence was measured using 15 μM solutions of each compound in a solution that was 90% aqueous, 10% DMSO. For compound 21, the longest wavelength emission observed from the dianions occurred near 680 nm at pH 9. For compound 7 (transposed), the longest wavelength emission observed from the monoanion occurred near 800 nm at pH 9.
Compounds 22 and 8 also were characterized by their fluorescence emission spectra. Fluorescence was measured using 15 μM solutions of each compound in a solution that was 90% aqueous, 10% DMSO For compound 22, the longest wavelength emission observed from the anion occurred near 690 nm at pH 9. […] Given the greater than 800 nm absorbance peak and the typically large Stokes shifts observed in this class of compounds, it is likely that the emission was beyond the working range of the instrument (>850 nm).
Compounds 20 and 15a also were characterized by their fluorescence emission spectra. Fluorescence was measured using 15 μM solutions of each compound in a solution that was 90% aqueous, 10% DMSO. For compound 20a, the longest wavelength emission observed from its corresponding anion, compound 20c, occurred near 640 nm in NaOH (pH 12). For compound 15a (transposed), the longest wavelength emission observed from the corresponding anion, compound 15h, occurred near 760 nm in NaOH.
Compound 15b also was characterized by its fluorescence emission spectrum and compared to C.SNARF-5. Fluorescence was measured using a 15 μM solution of compound 15b in a solution that was 90% aqueous, 10% DMSO. For C.SNARF-5, the longest wavelength emission observed from the anion occurred near 632 nm (Whitaker et al., Anal. Biochem. 1991, 194, 330-344). For compound 15b (transposed), the longest wavelength emission observed from the phenoxide occurred near 770 nm.
Fluorescence was measured using a 15 μM solution of compound 15d in a solution that was 90% aqueous, 10% DMSO. […] For compound 15d (transposed), the longest wavelength emission observed from the phenoxide occurred near 780 nm (NaOH, pH 12).
Compounds 20b and 15g also were characterized by their fluorescence emission spectra. Fluorescence was measured using 15 μM solutions of each compound in a solution that was 90% aqueous, 10% DMSO. For compound 20b, the longest wavelength emission observed from the cation occurred near 640 nm at pH 7.4. For compound 15g (transposed), the longest wavelength emission observed from the cation occurred near 770 nm at pH 7.4.

Data set [3] is described as follows: Emission in blood (whole porcine blood in buffer). The method, then:
Compound 15d (Table 1) was diluted to 40 μM in 50% DMSO:50% 25 mM pH 9 phosphate buffer. […] Emission remained stable for at least 1 hr. The absorption profile matches the output of a laser pointer (635-670 nm; max output <5 mW).
Its absorbance and fluorescence spectra faded over time, but remained visible after about an hour (although with only 10-20% of its original emission intensity). Molecular modeling has shown favorable structural interactions of compounds 5f and 24 with glutathione (FIG. 12—compound 24).
Spectral behavior of compound 15g (type [c] annulated seminaphtho-rhodamine methyl ester (free amine) with the 3-1 transposition) was investigated to determine its potential for sensing use in whole blood. Solutions of compound 15g in 10% or 90% by volume whole blood (porcine blood in Na-EDTA, Lampire Biological Laboratories) were investigated in a 3×3 mm cell. The fluorophore was first dissolved in 50 mM, pH 7.4 phosphate buffer to ensure complete dissolution, and in the case of 90% whole blood, this stock solution was mixed with whole blood in a 1:9 ratio. In the case of 10% whole blood, 1 part whole blood was added to 9 parts of an appropriately diluted (with deionized water) solution of compound 15g stock. In both cases, the final concentration of compound 15g was 150 μM with a final phosphate buffer concentration of 5 mM. […] Throughout much of the spectrum, the dye produces a greater absorbance than the blood alone. The change in absorbance between the two spectra provides the effective absorbance of the dye. […] The broad absorption and large Stokes shift of this dye allows significant excitation with greater than 50% efficiency at wavelengths beyond that of the major hemoglobin peaks in blood.

Data set [4] in a line: Absorbance and fluorescence in methanol. It counts as physicochemical. As for the experimental part: Absorbance and fluorescence of compounds 22 and 8 also were measured in methanol. […] Thus, placement of the hydroxyl group proximal to the xanthene internal oxygen in compound 8 produced a bathochromic shift of 103 nm in the absorption spectrum. The transposition also imparted a corresponding shift in the excitation spectrum, and a large bathochromic shift of 128 nm in the fluorescence emission. Importantly, compound 8 absorbs and emits in the near-infrared with absorption and emission maxima of 701 nm and 816 nm, respectively.
Absorbance and fluorescence of compounds 20a and 15a also were measured in methanol. […] Thus, placement of the hydroxyl group proximal to the xanthene internal oxygen in compound 15a produced a bathochromic shift of 15 nm in the absorbance spectrum. The transposition also imparted a corresponding shift in the excitation spectrum, and a large bathochromic shift of 32 nm in the fluorescence emission.

Where [5] appears, read: NaOH (pH 12), anionic/phenoxide form, 90% aqueous 10% DMSO.
[6] abbreviates: pH 6, predominantly neutral/phenolic form.
[7] abbreviates: 40 μM in 50% DMSO:50% 25 mM pH 9 phosphate buffer.

Values joined by “and” are separate entries in the source; they are usually repeats but may differ in a detail not shown here. Equal entries are not always repeated.

Regarding `COC(=O)c1ccccc1-c1c2ccc(=N)cc-2oc2c1ccc1cccc(O)c12` [Compound 15b], the “Red shift of absorption spectra from 3-1 transposition versus known regiochemistry” value (“Red shift of absorption spectra” below) in data set [1] (90% aqueous 10% DMSO) is 50-65 nm. Further, the Absorbance peak in data set [1] (setting [5]) came to 615 nm. In addition, in data set [1] (setting [6]), the Absorbance peak is 535 nm. Moreover, in data set [2], the “Enhancement of the Stokes shift by 3-1 transposition” value (“Enhancement of the Stokes shift” for short) is “about 73 nm”, the Stokes shift entry is “about 155 nm” and the “Red-shifted emission from 3-1 transposition versus known regiochemistry” value (from here on “Red-shifted emission”) was “about 138 nm”. This molecule also showed a Longest wavelength emission in data set [2] (pH not stated) of around 770 nm.

Turning to `COC(=O)c1ccccc1-c1c2ccc(=N)cc-2oc2c1ccc1cccc(N)c12` [Compound 15g], the “Red shift of absorption spectra” value in data set [1] (90% aqueous 10% DMSO) is recorded as “about 30 nm”. In data set [1] (pH 7.4, 90% aqueous 10% DMSO), this molecule came in with an Absorbance peak of 570 nm. In addition, in data set [2], the “Enhancement of the Stokes shift” value was “about 100 nm”, the Stokes shift result is reported as “about 200 nm” and the “Red-shifted emission” value is recorded as “about 130 nm”. This molecule also yielded a Longest wavelength emission in data set [2] (pH 7.4, cation) of around 770 nm. In data set [3] (150 μM, 10% and 90% whole blood, excitation at 670 nm), the Emission spectrum maximum entry is given as “about 750 nm”.

Molecule `COC(=O)c1ccccc1-c1c2ccc(=N)cc-2oc2c1ccc1cc(N)ccc12` [Compound 20b] returned an Absorbance peak in data set [1] (pH 7.4, 90% aqueous 10% DMSO) of 540 nm. Moreover, the Stokes shift result in data set [2] is “about 100 nm”. For the same molecule, the Longest wavelength emission in data set [2] (pH 7.4, cation) is around 640 nm.

On to `Cc1ccc(C)c(-c2c3ccc4cccc(O)c4c3oc3c2ccc2cccc(=O)c23)c1` [Compound 4a], for which the “Stability of absorption in the blood solution” value in data set [3] (blood solution) was “remained stable over extended periods of time”.

With `O=C1OC2(c3ccccc31)c1ccc3cc(O)ccc3c1Oc1c2ccc2cc(O)ccc12` [Compound 21, Naphthofluorescein, reference compound], the Absorbance peak in data set [1] (setting [5]) was found to be 600 nm; in data set [1] (pH 7.4, 90% aqueous 10% DMSO) it was 590 nm. In addition, the Stokes shift entry in data set [2] is reported as “about 80 nm”. In data set [2] (pH 9), this molecule had a Longest wavelength emission of around 680 nm.

In the case of `COC(=O)c1ccccc1-c1c2ccc3cc(O)ccc3c2oc2c1ccc1cc(=O)ccc12` [Compound 22, naphthofluorescein methyl ester], the Absorbance peak in data set [1] (setting [5]) is listed as 610 nm; in data set [1] (pH 7.4, 90% aqueous 10% DMSO), 605 nm. Besides, the Stokes shift result in data set [2] is recorded as “about 80 nm”. This molecule returned a Longest wavelength emission in data set [2] (pH 9) of around 690 nm. This molecule yielded an Absorption maximum in data set [4] of 598 nm. Also, the Emission maximum in data set [4] came out at 688 nm.

For the molecule `COC(=O)c1ccccc1-c1c2ccc(=O)cc-2oc2c1ccc1cc(O)ccc12` [Compound 20c], the Absorbance peak in data set [1] (setting [5]) is 545 nm. Also, the Stokes shift result in data set [2] was “about 95 nm”. This molecule also yielded a Longest wavelength emission in data set [2] (NaOH (pH 12), anion/phenoxide) of around 640 nm.

For the molecule `COC(=O)c1ccccc1-c1c2ccc(=O)cc-2oc2c1ccc1cccc(O)c12` [Compound 15a], in data set [1] (90% aqueous 10% DMSO), the “Red shift of absorption spectra” value is 10-55 nm. For the same molecule, the Absorbance peak in data set [1] (setting [6]) worked out at 525 nm. Further, in data set [4], the Absorption maximum was 501 nm and 536 nm; the “Bathochromic shift in the absorption spectrum versus known regiochemistry” value was 15 nm; the “Bathochromic shift in the fluorescence emission versus known regiochemistry” value is 32 nm; the Emission maximum is given as 582 nm.

In turn, `COC(=O)c1ccccc1-c1c2ccc(=O)cc-2oc2c1ccc1cc(O)ccc12` [Compound 20a] showed an Absorbance peak in data set [1] (setting [6]) of 515 nm. Also, in data set [4], the Absorption maximum is 487 nm and 521 nm; the Emission maximum was 550 nm.

Consider `COC(=O)c1ccccc1-c1c2ccc(=[N+](C)C)cc-2oc2c1ccc1cccc(O)c12` [Compound 15d], for which, in data set [1] (90% aqueous 10% DMSO), the “Red shift of absorption spectra” value is recorded as 55-57 nm. For the same molecule, the Absorbance peak in data set [1] (setting [5]) is on record as 630 nm. In data set [1] (setting [6]), this molecule displayed an Absorbance peak of 570 nm. Besides, in data set [2], the “Enhancement of the Stokes shift” value is recorded as “about 92 nm”, the Stokes shift result is listed as “about 150 nm” and the “Red-shifted emission” value was “about 149 nm”. In data set [2] (NaOH (pH 12), anion/phenoxide), this molecule came in with a Longest wavelength emission of around 780 nm. In data set [3] (setting [7]), the λmax em is around 790 nm and the λmax ex was around 690 nm. In addition, the “Time emission remained stable” value in data set [3] (5% whole blood) is “at least 1 hr”. Also, in data set [3] (final blood concentration 5% by volume), the “Loss of fluorescence on inclusion of whole blood” value is “only minimal loss of fluorescence”.
